Measured values: US10149472B2, “Chitin oligomers for use in promoting non-leguminous plant growth and development” (Wisconsin Alumni Research Foundation, priority 2015, dated 2018)

What was measured:
[1] = system: M. truncatula; test: Lateral root emergence in M. truncatula; format: in vivo, Medicago truncatula; details: 10^−7 M; fold induction relative to the control; FIG. 7
Description: M. truncatula roots were treated with 10^−7 M CO4 or 10^−7 M NS-LCO and the effect on lateral root emergence was measured. The numbers in parentheses indicate the number of plants analyzed. The significance of the difference to the […] control plants, as measured using a t-test, is indicated. The treatments are measured as fold induction relative to the control. Error bars represent the standard error.
Accordingly, the disclosed method is limited in scope to treating non-leguminous plants, or seeds, seedlings or plant parts thereof.

[2] = system: Rice; test: Foliar treatment of rice; format: in vivo; details: foliar 10^−6 M with 0.05% Silwet L-77; for shoot length: FIG. 12A
Description: Rice seeds were surface sterilized using 2% bleach. Seeds were then germinated on damp germination paper in sterile Petri dishes for 5 days. The seedlings were then transferred to Fahraeus medium plates containing damp germination paper. The plates were wrapped in Parafilm®, and the roots part of the plate covered with aluminum foil.
The plants were grown at room temperature under continuous light for 21 days. The plants were then transferred to moistened SUNGRO® soil pots (8×8×10 cm) and grown for 3 days under greenhouse condition. The plants were hydrated by pouring water into the tray underneath the pots.
The soil surface was then covered with plastic wrap to prevent any liquid droplets from contacting the soil. Using painting brushes, the front, and back of the plant leaves were treated with 3 ml of chitin derived compounds (CO4 and CO8) at 10^−6 M or a control (0.5% ethanol), each including 0.05% of Silwet L-77 (surfactant). Eleven plants were treated with each solution. The plants were subsequently grown for 14 days, and the shoot length was measured. Once a week, half-strength Hoagland solution was added into the trays underneath the pots. The plants were grown for another 4 days, and the lengths of the shoot and root systems were measured.

[3] = system: rice trichoblasts (root hair cells); test: Calcium spiking (YC3.6 imaging) in rice trichoblasts (root hair cells); format: cell-based, Oryza sativa cv Nipponbare; details: 10^−5 M, FIG. 5, FIG. 6
Description: Mycorrhizal induced calcium responses were measured as described previously (14). Transgenic Oryza sativa Nipponbare lines carrying Yellow Cameleon 3.6 (YC3.6) FRET-based calcium sensor was used to detect calcium spiking. YC3.6 was imaged on a Nikon Eclipse Ti inverted microscope (Nikon, Japan) equipped with an OptoLED Illuminator (model OptoLED, Cairn Research Ltd, UK). YC3.6 was excited at a wavelength of 455 nm using a royal blue LED and was captured with a charge-coupled device (CCD) camera (model RETIGA-SRV, Qimaging, Canada). Emitted fluorescence was separated by an image splitter with a dichroic mirror (model Optosplit II, Cairn Research Ltd, UK) and then passed through a fluorescence filter set. Images were collected every 5 seconds with 1-second exposure and analyzed using MetaFluor (Molecular Devices, Sunnyvale, Calif., USA).
Both LCOs and COs are Required to Induce Calcium Spiking in Trichoblasts. Rhizobia colonize legumes by root hair cells (trichoblasts), whereas AM fungi colonize roots via non-root hair epidermal cells (atrichoblasts). Thus, these different root epidermal cell types may respond differently to COs and LCOs. To test this, we directly compared trichoblast and atrichoblast responses using high concentrations of CO4 in rice. Calcium oscillations observed in rice following treatments of CO4 were restricted to atrichoblasts, with no responses in trichoblasts even with CO4 treatments of 10^−5 M (FIG. 5). This preferential nature of rice atrichoblasts to respond to the AM signals is consistent with a preference for AM fungi to colonize the root via atrichoblasts (26). It is possible that either AM fungi produce signalling molecules other than S-LCO, NS-LCO and CO4 that induce calcium oscillations in rice trichoblasts, or that the mix of signalling molecules is important. To test this, we assessed induction of calcium oscillations by an equimolar mix of 10^−5 M S-LCO, NS-LCO, and CO4.

[4] = system: pea (the legume Pisum sativum); test: Seed treatment of pea in pots; format: in vivo; details: seed coating 125 μl of 10^−6 M, 2 weeks after planting, * significant at P < 0.05
Description: Five grams of pea seeds (the legume Pisum sativum) were added to three separate 50 ml tubes. A water solution containing 0.5% ethanol was added to the control tube, 125 μl of 10^−6M CO4 solution was added to the CO4 tube, and 125 μl of 10^−6 M CO8 solution was added to the CO8 tube. Each tube was then shaken to coat the seeds. Seeds were potted immediately following treatment into moistened SUNGRO® potting mix in 4×6×6 cm pots. Plants were watered by pouring water into the tray containing the pots up to about ¾ inch high. After sowing the seeds, the pots were randomly distributed (16 pots per treatment) throughout the tray and placed underneath continuous light at room temperature for 1 week. Liquid Fahräeus medium (plant fertilizer solution; see above) was applied every 2 days or when necessary. After a week, the pots were placed underneath 10 h light and 14 h dark cycle at room temperature for 1 week. After 1 week underneath 10 h light and 14 h dark cycle (2 weeks after planting), the plants were carefully removed from the pots, and as much soil as possible was shaken off. The remaining soil was removed by submerging the root system into a beaker of water. The number of primary roots (PR), lateral roots (LR), root system length (RSL) and dry weight (DW) were then measured for all plants.

For CC(=O)N[C@H]1[C@H](O[C@H]2[C@H](O)[C@@H](NC(C)=O)C(O)O[C@@H]2CO)O[C@H](CO)[C@@H](O[C@@H]2O[C@H](CO)[C@@H](O[C@@H]3O[C@H](CO)[C@@H](O)[C@H](O)[C@H]3NC(C)=O)[C@H](O)[C@H]2NC(C)=O)[C@@H]1O (stereo partly shown) [CO4, tetra-N-acetylchitotetraose], the lateral root emergence [1] was “could not induce lateral root emergence”, the shoot length ([2]; day 14 after treatment) was “significantly increased” and the shoot length ([2]; day 18 after treatment) was “significance was even higher”. The root system length ([2]; day 18 after treatment, FIG. 12B) was “significantly promoted” and the “calcium spiking in trichoblasts” value [3] was “no responses”.

In the case of CC(=O)N[C@H]1[C@H](O[C@H]2[C@H](O)[C@@H](NC(C)=O)[C@H](O[C@H]3[C@H](O)[C@@H](NC(C)=O)[C@H](O[C@H]4[C@H](O)[C@@H](NC(C)=O)C(O)O[C@@H]4CO)O[C@@H]3CO)O[C@@H]2CO)O[C@H](CO)[C@@H](O[C@@H]2O[C@H](CO)[C@@H](O[C@@H]3O[C@H](CO)[C@@H](O[C@@H]4O[C@H](CO)[C@@H](O[C@@H]5O[C@H](CO)[C@@H](O)[C@H](O)[C@H]5NC(C)=O)[C@H](O)[C@H]4NC(C)=O)[C@H](O)[C@H]3NC(C)=O)[C@H](O)[C@H]2NC(C)=O)[C@@H]1O (stereo partly shown) [CO8, octa-N-acetyl-chitooctaose], the “Average Lateral Roots” value [4] is reported as “significantly decreased” and the “Average Primary Roots” value [4] is reported as “significantly decreased”.
